Experimental data from patent publication US20050009912A1, “Prodrugs of excitatory amino acids” (priority 2001, published 2005).

| Compound | melting point |
| --- | --- |
| Cc1ccc(C)c(COC(=O)[C@]2(N)CC[C@H]3[C@H](C(=O)O)[C@H]32)c1.Cl [Example 41, (1S,2S,5R,6S)-2-Amino-bicyclo[3.1.0]hexane-2,6-dicarboxylic acid 2-(2′,5′-dimethyl)benzyl ester hydrochloride] | 70 °C (dec.) |
| Cl.N[C@@]1(C(=O)OCc2ccc(Cl)cc2Cl)CC[C@H]2[C@H](C(=O)O)[C@H]21 [Example 29, (1S,2S,5R,6S)-2-Amino-bicyclo[3.1.0]hexane-2,6-dicarboxylic acid 2-(2′,4′-dichloro)benzyl ester hydrochloride] | 135 to 137 °C |
| N[C@@]1(C(=O)OCc2cccc(F)c2)CC[C@H]2[C@H](C(=O)O)[C@H]21 [Example 54, (1S, 2S, SR,6S)-2-Amino-bicyclo[3.1.0]hexane-2,6-dicarboxylic acid 2-(3′-fluoro)benzyl ester] | 225 °C (dec.) |
| Cl.N[C@@]1(C(=O)OCc2cc(Cl)ccc2Cl)CC[C@H]2[C@H](C(=O)O)[C@H]21 [Example 33, (1S,2S,5R,6S)-2-Amino-bicyclo[3.1.0]hexane-2,6-dicarboxylic acid 2-(2′,5′-dichloro)benzyl ester hydrochloride] | 173 to 175 °C |
| COc1ccccc1COC(=O)[C@]1(N)CC[C@H]2[C@H](C(=O)O)[C@H]21 [Example 48, (1S,2S, SR, 6S)-2-Amino-bicyclo[3.1.0]hexane-2,6-dicarboxylic acid 2-(2′-methoxy)benzyl ester] | 195 °C (dec.) |
| Cl.N[C@@]1(C(=O)OCc2cc(F)cc(F)c2)CC[C@H]2[C@H](C(=O)O)[C@H]21 [Example 35, (1S,2S,5R,6S)-2-Amino-bicyclo[3.1.0]hexane-2,6-dicarboxylic acid 2-(31,5′-difluoro)benzyl ester hydrochloride] | 98 to 99 °C |

More lines, now with the values ahead:

| melting point | Compound |
| --- | --- |
| > 175 °C (dec.) | Cl.N[C@@]1(C(=O)OCc2ccccc2C(F)(F)F)CC[C@H]2[C@H](C(=O)O)[C@H]21 |
| > 220 °C (dec.) | Cl.N[C@@]1(C(=O)OCc2ccccc2F)CC[C@H]2[C@H](C(=O)O)[C@H]21 [Example 31, (1S,2S,5R,6S)-2-Amino-bicyclo[3.1.0]hexane-2,6-dicarboxylic acid 2-(2′-fluoro)benzyl ester hydrochloride] |
| 190 to 191 °C | Cl.N[C@@]1(C(=O)OCc2ccccc2Br)CC[C@H]2[C@H](C(=O)O)[C@H]21 [Example 34, (1S,2S,5R,6S)-2-Amino-bicyclo[3.1.0]hexane-2,6-dicarboxylic acid 2-(2′-bromo)benzyl ester hydrochloride] |
